We go through eight compounds from patent US12503448B2, “Antibacterial and antiparasitic quinoxaline-2,3-diamine derivatives” (University College Cardiff Consultants Limited, priority 2019, dated 2025).

Series [1] has as its system F. hepatica newly excysted juveniles (NEJs). Put plainly: Newly excysted juveniles (NEJs) drug screen. The class given is cell-based, Fasciola hepatica. Further details: scale not given here. Particulars: 10 μM, 72 h; higher score indicates lower worm activity. Here is the method:
Newly Excysted Juveniles (NEJs) Drug Screen
F. hepatica (Italian strain) metacercariae were obtained from Ridgeway Research, Gloucestershire, UK and stored at 4° C. Newly excysted juveniles (NEJs) from metacercariae were produced based on an optimisation introduced to the excystment method published by Dixon et al. and Wilson et al (Dixon, K. E., The physiology of excystment of the metacercaria of Fasciola hepática L. Parasitology, 1966, 56, 431-456.; Wilson, L. R., Good, R. T., Panaccio, M., Wijffels, G. L., Sandeman, R. M., Spithill, T. W, Fasciola hepatica: Characterization and Cloning of the Major Cathepsin B Protease Secreted by Newly Excysted Juvenile Liver Fluke. Experimental Parasitology 1998, 88, 85-94).
After excystment, NEJs were distributed into a 24 well tissue culture plate at a density of 25 parasites per well containing 1 mL of pre-warmed NEJs culture media. Compounds were added to respective wells and NEJ/compound co-cultures were incubated at 37° C. in an atmosphere containing 5% CO2 for 72 hours at a final concentration of 10 μM.
F. hepatica NEJs (25 per well) were incubated with the three compounds at a concentration of 10 μM (in 0.1% DMSO) and cultured for 72 hrs at 37° C. in an atmosphere containing 5% CO2. Control wells (25 NEJs per well) included those containing 0.1% DMSO (solvent) and RMPI (media) as negative controls or 10 μM Triclabendazole (0.1% DMSO, as positive control, labelled “Tbz” (Comp. 3). After 72 hrs, all NEJs were scored for phenotype and motility metrics. For each treatment, an average of both phenotype and motility score was calculated based on the individual parasite scores (across two independent replicates), wherein a higher score indicates lower worm activity. SD is reported on the bar chart.

A further series deals with B. cereus. As to the kind of experiment: In vitro antibacterial activity. The class given is cell-based. Particulars: Bacillus cereus.
Another series deals with S. mansoni schistosomula. As to the kind of experiment: 72 hours schistosomula drug screen. Particulars: for Selectivity Index Schistosomula: HepG2 CC50 over schistosomula EC50; for EC50: Schistosoma mansoni. The class given is cell-based, Schistosoma mansoni. The procedure: Biological Screening 72 Hours Schistosomula Drug Screen […] G. Colley, […], Schistosoma mansoni: simplified method for the production of schistosomules., Exp. Parasitol. 35 (1974) 44-51. Newly transformed schistosomula were prepared for 72 hour high throughput screening (HTS) in 384-well black-sided microtiter plates (Perkin Elmer, MA, USA) as described in M. Nur-e-alam, M. Yousaf, […]. Bari, H. A. Ghabbour, […]. Ho, A. J. […], Neoclerodane Diterpenoids from […], Teucrium […]. Nat. […] The data obtained in this manner is shown in Table 1 in the columns labelled “Phenotype”, “Motility” and “Schistosomula average”.

In series [2] the test system is Pseudomonas aeruginosa ATCC 27853. Put plainly: In vitro antibacterial activity. The class given is cell-based. Particulars: ATCC27853.
Another series concerns MRSA ATCC 33591. Put plainly: In vitro antibacterial activity. The class given is cell-based. To be noted: Staphylococcus aureus.
The next series concerns S. mansoni adult worms. Put plainly: Adult worm drug screen (WHO scoring, WormassayGP2). It is filed as cell-based, Schistosoma mansoni. To be noted: for Selectivity Index Adult: HepG2 CC50 over adult worm EC50; for EC50: Schistosoma mansoni, adult worms. The text has this:
Mice (MF-1 mice, Harlan, UK), infected 7 weeks previously with 180 cercaria, were euthanised with an intraperitoneal injection of phenobarbital/heparin solution. Adult worms were recovered by perfusion of the portal system and subjected to drug screening as previously described in Padalino G, Ferla S, Brancale A, Chalmers I W, Hoffmann K F. Int J Parasitol Drugs Drug Resist. 2018 December; 8(3):559-570; in Whiteland H L, Chakroborty A, Forde-Thomas J E, Crusco A, Cookson A, Hollinshead J, Fenn C A, Bartholomew B, Holdsworth P A, Fisher M, Nash R J, Hoffmann K F. Int J Parasitol Drugs Drug Resist. 2018 December; 8(3):465-474; and in Crusco A, Bordoni C, Chakroborty A, Whatley K C L, Whiteland H, Westwell A D, Hoffmann K F. Eur J Med Chem. 2018 May 25; 152:87-100. The data obtained in this manner is shown in Table 1 in the columns labelled “Adult worm”.
Regarding the quantification of drug treatment on adult worms (e.g. decreased activity, paralysis or sluggishness), two different approaches were used, as described below. Where egg deposition was noticed, eggs were removed and counted using a Sedgewick rafter slide.
Adult worms were scored using the standardized microscopic WHO-TDR scoring system previously described by Ramirez, B., Bickle, Q., Yousif, F., Fakorede, F., Mouries, M.-A., Nwaka, S. in Schistosomes: Challenges in compound screening, Expert Opin Drug Discov. 2007 October; 2(s1): S53-61. This scoring system (0-4) identifies changes in worm movement and is defined according to the following scoring matrix: 0=no movement, 1=no movement with visible gut peristalsis, 2=minimal movement (occasional movement from anterior or posterior end of the worm), 3=slow continuous movement and 4=normal movement.
A digital image processing-based system was also used to assess parasite motility after drug treatment and is a modification of methods previously described by Marcellino C., Gut, J., Lim, K., Singh R., McKerrow, L. and Sakanari, J. WormAssay: a novel computer application for whole-plate motion-based screening of macroscopic parasites. PLoS Negl Trop Dis. 2012 January:6(1):e1494. This allowed for objective verification of the WHO method described above. The data obtained with this quantification method is shown in Table 1 in the columns labelled “Adult worm”.

A further series relates to MRSA EM RSA. As to the kind of experiment: In vitro antibacterial activity. Particulars: Staphylococcus aureus. The class given is cell-based. An excerpt: In vitro Determination of Antibacterial Activity
Scientific Reports 8 (1), 2018. Bacterial strains of Enterococcus faecalis—ATCC 29212, NCTC 12201, ATCC 51299; Streptococcus pneumoniae—ATCC 49619, 18778, 21394, 21395; Haemophilus influenza—ATCC 49766, 18391, 17428; Staphylococcus aureus—NCTC 12493, ATCC BAA-077, ATCC 700698, 11051; used for testing the compounds, as previously described in “Clinical laboratory testing and in vitro diagnostics test systems—Susceptibility testing of infectious agents and evaluation of performance of antimicrobial susceptibility devices—Part 1: Reference methods for testing the in vitro activity of antimicrobial agentes against bacteria involved in infectious diseases, ISO/FDIS 20776-1:2006(E). All the procedures were carried out in a biosafety containment level 2.

Another series concerns MRSA USA 300. As to the kind of experiment: In vitro antibacterial activity. It is filed as cell-based. Particulars: Staphylococcus aureus.
In series [3] the test system is M. smegmatis mc^2 15 ATCC 700084. Put plainly: In vitro antibacterial activity. It is filed as cell-based, Mycobacterium smegmatis. Particulars: Mycolicibacterium smegmatis, ATCC700084.
A further series relates to S. aureus ATCC 29213. Put plainly: In vitro antibacterial activity. To be noted: Staphylococcus aureus, ATCC29213. The class given is cell-based.
Another series deals with E. coli ATCC 25922. As to the kind of experiment: In vitro antibacterial activity. It is filed as cell-based. To be noted: Escherichia coli, ATCC25922.
The next series deals with S. epidermidis NTCT11077. As to the kind of experiment: In vitro antibacterial activity. The class given is cell-based. Particulars: Staphylococcus epidermidis.
Series [4] in a line: Semi thermodynamic solubility. Particulars: thermodynamic from solid.
Setting [5] is: average of phenotype and motility, read-out: EC50 Schistosomula average.
The mark [6] stands for this setting: schistosomula, 72 hour culture, read-out: EC50 Motility.
The mark [7] stands for this setting: M. smegmatis mc^2 15 ATCC 700084, read-out: MIC90.
Where [8] appears, read: E. coli ATCC 25922, read-out: MIC90.
Where [9] appears, read: schistosomula, 72 hour culture, read-out: EC50 Phenotype.

Values after ≈ are worked out from the molar mass of the structure shown. Like-named read-outs stand apart in the source and are kept apart here. A value given as a limit tells only on which side of the number the result lay.

With `CSc1nc2cc(Cl)c(Oc3cccc(Cl)c3Cl)cc2[nH]1` [Comp. 3, triclabendazole, reference compound], in series [1], the “Motility (M) Mean score” value came to 4.72 and the “Phenotype (P) Mean score” value was 4.72.
As to `O=[N+]([O-])c1ccc2nc(Nc3cccc(C(F)(F)F)c3)c(Nc3cccc(C(F)(F)F)c3)nc2c1` [Compound 10, 6-nitro-N^2, N^3-bis(3-(trifluoromethyl)phenyl)quinoxaline-2,3-diamine], the MIC90 (in general, an inhibitory concentration at the 90% level, which refers to growth in some studies and to a panel of isolates in others) with B. cereus (B. cereus, read-out: MIC90) was over 125 µg/mL; in [2] (Pseudomonas aeruginosa ATCC 27853, read-out: MIC90), over 125 µg/mL; against MRSA ATCC 33591 it was over 125 µg/mL; in the series on MRSA EM RSA it was over 125 µg/mL; with MRSA USA 300 it was over 125 µg/mL; in series [3] (setting [7]) it was over 125 µg/mL. Besides, the MIC90 in the series with S. aureus ATCC 29213 was 7.81 µg/mL (≈ 15.8 µM); in the series with E. coli ATCC 25922 (setting [8]), over 125 µg/mL; in the series with S. epidermidis NTCT11077 (S. epidermidis NTCT11077, read-out: MIC90), over 125 µg/mL. The “Selectivity Index Schistosomula” value in the series on S. mansoni schistosomula was found to be 12. For the same compound, the EC50 (commonly the concentration that produces a half-maximal response) in the series with S. mansoni schistosomula (setting [5]) stood at 480 nM; in the series on S. mansoni schistosomula (setting [6]), 570 nM; in the series on S. mansoni adult worms, 7 nM. Besides, the “Selectivity Index Adult” value in the series on S. mansoni adult worms is given as 836. Also, the “Motility (M) Mean score” value in series [1] is 2.71. Moreover, the “Phenotype (P) Mean score” value in series [1] was determined as 2.76.
As to `O=[N+]([O-])c1ccc2nc(NCc3ccccc3)c(NCc3ccccc3)nc2c1` [Compound 13, N^2, N^3-dibenzyl-6-nitroquinoxaline-2,3-diamine], the “Selectivity Index Schistosomula” value in the series on S. mansoni schistosomula was determined as 4. Also, the EC50 is 2920 nM with S. mansoni schistosomula (setting [5]), 2640 nM in the series with S. mansoni schistosomula (setting [6]) and 3190 nM in the series on S. mansoni schistosomula (setting [9]). The “Motility (M) Mean score” value in [1] stood at 3.14. The “Phenotype (P) Mean score” value in [1] worked out at 3.14. Besides, the MIC90 (in series [3]; against S. aureus ATCC 29213; in the series on E. coli ATCC 25922) was over 125 µg/mL throughout.
Take `O=[N+]([O-])c1ccc2nc(NCCc3ccccc3)c(NCCc3ccccc3)nc2c1` [Compound 14, 6-nitro-N^2, N^3-diphenethylquinoxaline-2,3-diamine]: the results for the EC50 in the series on S. mansoni schistosomula (setting [6]) and in the series on S. mansoni schistosomula (setting [9]) were 1470 nM and 2200 nM, respectively. In addition, the “Motility (M) Mean score” value in [1] came to 4.00. In series [1], the “Phenotype (P) Mean score” value is on record as 4.27. Further, the MIC90 in [3] (setting [7]) is 31.2 µg/mL (≈ 75.6 µM); with S. aureus ATCC 29213 (S. aureus ATCC 29213, read-out: MIC90), over 125 µg/mL; in the series on E. coli ATCC 25922 (setting [8]), over 125 µg/mL.
Turning to `Nc1ccc2nc(Nc3ccc(Cl)c(Cl)c3)c(Nc3ccc(Cl)c(Cl)c3)nc2c1` [Compound 15, N^2, N^3-bis(3,4-dichlorophenyl)quinoxaline-2,3,6-triamine], in the series with S. mansoni schistosomula, the “Selectivity Index Schistosomula” value stood at 7. The values for the EC50 in the series with S. mansoni schistosomula (setting [6]) and with S. mansoni schistosomula (setting [9]) were 3250 nM and 3510 nM, respectively. In [1], the “Motility (M) Mean score” value is 4.86. Moreover, in series [1], the “Phenotype (P) Mean score” value is 5.09.
Regarding `Clc1ccc(Nc2nc3ccc(N4CCCC4)cc3nc2Nc2ccc(Cl)c(Cl)c2)cc1Cl` [Compound 16, N^2, N^3-bis(3,4-dichlorophenyl)-6-(pyrrolidin-1-yl)quinoxaline-2,3-diamine], the MIC90 against B. cereus is over 125 µg/mL; in series [2] (Pseudomonas aeruginosa), over 125 µg/mL; in the series on MRSA ATCC 33591 it was 31.2 µg/mL (≈ 60.2 µM); in the series with MRSA EM RSA, 62.5 µg/mL (≈ 120 µM); in the series on MRSA USA 300 it was 62.5 µg/mL (≈ 120 µM); in [3], over 125 µg/mL. The MIC90 in the series on S. aureus ATCC 29213 is 15.6 µg/mL (≈ 30.1 µM); against E. coli ATCC 25922, over 125 µg/mL; in the series on S. epidermidis NTCT11077 (NTCT11077), over 125 µg/mL. Also, the EC50 with S. mansoni schistosomula (setting [6]) and in the series on S. mansoni schistosomula (setting [9]) was over 10000 nM in each case. The “Motility (M) Mean score” value in series [1] came to 2.84. Besides, in series [1], the “Phenotype (P) Mean score” value came out at 2.95.
In the case of `CC(=O)Nc1ccc2nc(Nc3ccc(Cl)c(Cl)c3)c(Nc3ccc(Cl)c(Cl)c3)nc2c1` [Compound 17, N-(2,3-bis((3,4-dichlorophenyl)amino)quinoxalin-6-yl)acetamide], the MIC90 in the series on B. cereus was under 62.5 µg/mL; in series [2] (Pseudomonas aeruginosa), over 125 µg/mL; in series [3] it was over 125 µg/mL; against S. aureus ATCC 29213, 62.5 µg/mL (≈ 123 µM); against E. coli ATCC 25922, over 125 µg/mL; in the series with S. epidermidis NTCT11077 (NTCT11077), under 62.5 µg/mL. For the same compound, in the series with S. mansoni schistosomula, the “Selectivity Index Schistosomula” value was 4. The EC50 in the series with S. mansoni schistosomula (setting [5]) was 2350 nM; with S. mansoni schistosomula (setting [6]), 2090 nM; with S. mansoni schistosomula (setting [9]) it was 2600 nM; in the series with S. mansoni adult worms, 700 nM. In the series on S. mansoni adult worms, the “Selectivity Index Adult” value is on record as 12.
Take `COC(=O)C1=C(C)NC(C)=C(C(=O)OCCN(C)Cc2ccccc2)C1c1cccc([N+](=O)[O-])c1` (centres unmarked) [Nicardipine, reference compound]: in [4], the thermodynamic solubility (as a rule, solubility found after equilibrating the solid with the medium) was found to be 35.4 µM (≈ 17 µg/mL).
